{"source": "patent US20180125916A1", "about": "“System and Method for Natural Hair Loss Prevention Oil” (priority 2016, published 2018)", "origin": "cited, not measured here", "system": "male pattern baldness", "data": [{"smiles": "CC(C)(C)NC(=O)[C@H]1CC[C@H]2[C@@H]3CC[C@H]4NC(=O)C=C[C@]4(C)[C@H]3CC[C@]12C", "note": "[Finasteride]", "values": [{"measurement": "sexual dysfunction side effect", "setting": "administered orally", "result": "known to cause permanent sexual dysfunction"}]}, {"smiles": "Nc1cc(N2CCCCC2)nc(N)[n+]1[O-]", "note": "[Minoxidil]", "values": [{"measurement": "shedding on use", "setting": "first 2 months of use", "result": "can cause shedding in the first 2 months of use"}, {"measurement": "itching as a side effect", "setting": "in vivo", "result": "high likelihood of a considerable itching"}]}]}
